Measured values from patent US20250134855A1, “CO[…] AND METHODS OF USING SAME” (LYKOS THERAPEUTICS, INC., priority 2022, published 2025).
Structures can show the parent of a compound that is named as a salt. Where two headings read alike, the source gives them in different places.

What was measured:
[1] = paroxetine 20 mg a day for three days; single 100 mg dose of MDMA; cited from earlier work
[2] = Particle size of MDMA measured by laser diffraction; assay type: physicochemical
[3] = cited from earlier work
[4] = Forced degradation and storage stability of MDMA·HCl API; assay type: physicochemical
Source text: The crystalline, anhydrous form (Form 1) of MDMA·HCl is used for clinical development and commercialization purpose.
The long-term chemical stability of MDMA·HCl, Form I appears in FIG. 9 and FIG. 10.

healthy subjects = experiment: QTc interval, randomized crossover study; assay type: in vivo, human
Protocol: The effect of MDMA·HCl on the QTc interval was evaluated in a randomized, crossover study in N healthy subjects.

[5] = Study MPKF: plasma pharmacokinetics of MDMA and MDA, single 120 mg MDMA·HCl, fasted/fed; assay type: in vivo, human; conditions: for Vd: read-out: volume of distribution
Source text: (§1) The MPKF was a Phase 1, open-label, randomized sequence, multi-dose, 2-period crossover food effect study in 16 healthy individuals. The MPKF study evaluated plasma concentrations of both MDMA and the active metabolite 3,4-methylenedioxyamphetamine (MDA). Summary PK Parameters of the preliminary data was based on interim analysis are presented in Table 12 Table 12 Table 12, and Table 13 Table 13 Table 13 for MDMA and MDA, respectively.
Participants were randomized to receive 1 of 2 conditions before the other: • Fasted Treatment: at least 10 hours of fasting followed by administration of MDMA HCl with 240 mL water. • Fed Treatment: at least 10 hours of fasting followed by a high-fat (approximately 50% of total caloric content of the meal) and high-calorie (approximately 800 to 1000 calories) meal was consumed within 30 minutes prior to IMP administration.
(§2) Participants remained at the clinical research unit (CRU) for each Dosing Session from the time of check-in on the night before dosing until discharge 48 hours after dosing for collection of serial blood samples for PK analysis and safety monitoring. IMP was administered on Day 1 following the treatment sequence to which the participant was randomized. An additional outpatient visit occurred 72 hours after dosing to collect a final PK sample, commensurate with the expected PK profiles of MDMA and MDA. Safety assessments were also performed at this visit.
(§3) The washout period between Dosing Sessions was at least 14 days. If a participant experienced emesis within 4 hours of administration, they were to be withdrawn from the study and replaced with a new participant. An End of Study Visit was performed 2 to 10 days after the completion of the final Dosing Session 72-hour follow-up. An informal interim analysis was planned to be conducted after at least 5 participants completed at least 1 Dosing Session to examine PK variability.
The API was a white crystalline powder of pharmaceutical quality, made according to current Good Manufacturing Practices (cGMP) for human use.
Participants: Sixteen healthy individuals were recruited for the study.
Intervention: The study was conducted as a Phase 1, open-label, randomized sequence, multi-dose, 2-period crossover food effect study. Each participant received multiple doses of MDMA, and plasma concentrations of both MDMA and the active metabolite MDA were measured.
Sample Collection: Blood samples were collected at various time points up to 72 hours after dosing. The samples were analyzed using validated liquid chromatography-tandem mass spectrometry (LC-MS/MS) methods.
Data Analysis: The summary PK parameters were presented in Table 12 for MDMA and Table 13 for MDA. The data were analyzed using descriptive statistics, and the mean and standard deviation were calculated. The results were compared between the two periods and analyzed for food effects. Statistical analyses were performed using appropriate methods, such as analysis of variance (ANOVA) and paired t-tests. A p-value of less than 0.05 was considered statistically significant.

healthy individuals = experiment: Study MPKF: safety and tolerability (AEs, laboratory, vital signs); assay type: in vivo, human
Source text: as §1, §2, §3

CYP2D6 = CYP2D6 (Homo sapiens, UniProt P10635); experiment: CYP2D6 inhibition
CYP2D6, sequence (P10635 whole entry): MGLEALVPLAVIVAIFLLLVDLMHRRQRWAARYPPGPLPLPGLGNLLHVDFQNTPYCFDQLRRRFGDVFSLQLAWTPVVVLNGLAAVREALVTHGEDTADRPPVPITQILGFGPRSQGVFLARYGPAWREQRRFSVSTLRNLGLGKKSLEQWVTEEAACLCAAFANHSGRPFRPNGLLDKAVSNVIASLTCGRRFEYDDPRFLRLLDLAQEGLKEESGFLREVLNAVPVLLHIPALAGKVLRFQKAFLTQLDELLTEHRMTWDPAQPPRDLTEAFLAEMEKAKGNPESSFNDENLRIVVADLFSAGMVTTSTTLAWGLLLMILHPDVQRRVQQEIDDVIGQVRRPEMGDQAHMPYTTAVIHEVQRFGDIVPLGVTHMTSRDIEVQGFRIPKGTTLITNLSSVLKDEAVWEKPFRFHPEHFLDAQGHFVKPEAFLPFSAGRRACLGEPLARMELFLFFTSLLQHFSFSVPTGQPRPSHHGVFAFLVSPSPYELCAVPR

[6] = Solubility and permeability of MDMA·HCl
[7] = Stress-tests of thermal stability of MDMA·HCl; conditions: 70-80° C.
CYPs = experiment: CYP induction and inhibition of CYPs other than CYP2D6

## Fc1ccc([C@@H]2CCNC[C@H]2COc2ccc3c(c2)OCO3)cc1 [Paroxetine, reference compound]
[1]
  increase of AUC0-inf of MDMA: 27%
  increase of Cmax of MDMA: 17%

## CNC(C)Cc1ccc2c(c1)OCO2.Cl (stereo not drawn) [CJS194-5]
[2]
  Dv10: 23.4 μm
  Dv50: 151 μm
  Dv90: 341 μm

## CNC(C)Cc1ccc2c(c1)OCO2.Cl (stereo not drawn) [Form I]
[3]; polymorphic screening
  relative stability of Forms I-III: most stable of Forms I-III

## CNC(C)Cc1ccc2c(c1)OCO2.Cl (stereo not drawn) [Input 201101]
[2]
  Dv10: 376 μm
  Dv50: 512 μm
  Dv90: 844 μm

## CNC(C)Cc1ccc2c(c1)OCO2.Cl (stereo not drawn) [CJS194-2]
[2]
  Dv10: 20.0 μm
  Dv50: 135 μm
  Dv90: 326 μm

## CNC(C)Cc1ccc2c(c1)OCO2.Cl (stereo not drawn) [Form III]
[3]; storage at ambient conditions
  time to spontaneous conversion to Form I: 2.5 weeks

## CNC(C)Cc1ccc2c(c1)OCO2.Cl (stereo not drawn) [CJS194-4]
[2]
  Dv10: 23.8 μm
  Dv50: 161 μm
  Dv90: 353 μm

## CNC(C)Cc1ccc2c(c1)OCO2.Cl (stereo not drawn) [CJS194-1]
[2]
  Dv10: 29.0 μm
  Dv50: 170 μm
  Dv90: 342 μm

## CNC(C)Cc1ccc2c(c1)OCO2 (stereo not drawn) [MDMA·HCl, MDMA hydrochloride]
[4]; 25 degrees celsius at 60% RH, no change in appearance or increase in degradation products
  time over which long term chemical stability remains constant: up to 60 months
[4]; 7 days (FIG. 8)
  forced degradation: minimal degradation
[4]; higher humidity and temperature, 40 degrees celsius at 75% RH (FIG. 11)
  time over which chemical stability is not affected: up to 12 months
Healthy subjects; healthy subjects
  increase in heart rate: > 10 bpm
Healthy subjects; therapeutic dose, totality of nonclinical and clinical data
  QTc prolongation: lack of clinically relevant QTc prolongation
[5]; high-fat meal vs fasting, single 120 mg MDMA·HCl
  effect of food on exposure: not affected by food
[5]; human, plasma, oral, 120 mg, single 120 mg dose of MDMA·HCl, fasting, read-out: t1/2 (converted)
  half-life: 9 h
[5]; human, plasma, oral, single 100 mg dose of MDMA·HCl
  Vd: 372 L
[5]; human, plasma, oral, single 120 mg dose of MDMA·HCl
  Vd: 430 L
Healthy individuals; fasted session
  participants with nausea and vomiting: 12.5%
Healthy individuals; in vivo
  SAEs and AESI: No SAEs nor AESI were reported
Healthy individuals; single dose of 120 mg MDMA HCl
  overall tolerability: well tolerated
  participants reporting TEAEs: 37.5%
  participants with headache: 31.3%
CYP2D6
  CYP2D6 inhibition: strong CYP2D6 inhibitor
[6]
  solubility: high
[6]; not told
  permeability: high
[7]
  stability in stress-tests, duration: 72 h
CYPs
  induction of CYPs: not an inducer of CYPs
CYPs; human
  inhibition of CYPs other than CYP2D6: did not inhibit CYPs other than CYP2D6 in a clinically meaningful manner

## CNC(C)Cc1ccc2c(c1)OCO2.Cl (stereo not drawn) [CJS194-3]
[2]
  Dv10: 20.9 μm
  Dv50: 134 μm
  Dv90: 326 μm
